From US9233185B2, “Absorbent article” (UNICHARM CORPORATION, priority 2012, dated 2016) come the findings set out here.

Series [1] in a line: Rewetting rate of sanitary napkin with top sheet coated with blood modifying agent. To be noted: horse EDTA blood 3.0 g twice at 37±1° C.; agent coated on top sheet at about 5 g/m^2. Here is the method: A commercially available sanitary napkin was prepared. The sanitary napkin was formed from a top sheet, formed of a hydrophilic agent-treated air-through nonwoven fabric (composite fiber composed of polyester and polyethylene terephthalate, basis weight: 35 g/m^2), a second sheet, formed of an air-through nonwoven fabric (composite fiber composed of polyester and polyethylene terephthalate, basis weight: 30 g/m^2), an absorbent body comprising pulp (basis weight: 150-450 g/m^2, increased at the center section), an acrylic super-absorbent polymer (basis weight: 15 g/m^2) and tissue as a core wrap, a water-repellent agent-treated side sheet, and a back sheet composed of a polyethylene film.
(§1) The skin contact surface of the top sheet of the sanitary napkin was coated with the aforementioned blood modifying agent. Each blood modifying agent was used directly, when the blood modifying agent was liquid at room temperature, or when the blood modifying agent was solid at room temperature it was heated to its melting point +20° C., and a control seam HMA gun was used for atomization of the blood modifying agent and coating onto the entire skin contact surface of the top sheet to a basis weight of about 5 g/m^2.
(§2) An acrylic board with an opened hole (200 mm×100 mm, 125 g, with a 40 mm×10 mm hole opened at the center) was placed on a top sheet comprising each blood modifying agent, and 3.0 g of horse EDTA blood at 37±1° C. (obtained by adding ethylenediaminetetraacetic acid (hereunder, “EDTA”) to horse blood to prevent coagulation) was dropped through the hole using a pipette (once), and after 1 minute, 3.0 g of horse EDTA blood at 37±1° C. was again added dropwise through the acrylic board hole with a pipette (twice).
After the second dropping of blood, the acrylic board was immediately removed and 10 sheets of filter paper (Advantec Toyo Kaisha, Ltd, Qualitative Filter Paper No. 2, 50 mm×35 mm) were placed on the location where the blood had been dropped, and then a weight was placed thereover to a pressure of 30 g/cm^2. After 1 minute, the filter paper was removed, and the “rewetting rate” was calculated by the following formula. Rewetting rate(%)=100×(filter paper mass after test−initial filter paper mass)/6

Series [2] can be described thus: Visual evaluation of whiteness of skin contact surface of top sheet. Further details: species or system horse; key: VG (Very Good): Virtually no redness of blood remaining, and no clear delineation between areas with and without blood.; G (Good): Slight redness of blood remaining, but difficult to delineate between areas with and without blood.; F (Fair): Slight redness of blood remaining, areas with blood discernible.; P (Poor): Redness of blood completely remaining. The conditions noted are these: after absorbent body migration rate test. An excerpt:
The whiteness of the skin contact surface of the top sheet after the absorbent body migration rate test was visually evaluated on the following scale.
VG (Very Good): Virtually no redness of blood remaining, and no clear delineation between areas with and without blood.
G (Good): Slight redness of blood remaining, but difficult to delineate between areas with and without blood.
F (Fair): Slight redness of blood remaining, areas with blood discernible.
P (Poor): Redness of blood completely remaining.

Series [3] can be described thus: Surface tension of blood containing blood modifying agent, pendant drop method. To be noted: sheep defibrinated blood; amount 0.10 mass %; 35 ° C. The procedure: The surface tension of blood containing a blood modifying agent was measured by the pendant drop method, using a Drop Master500 contact angle meter by Kyowa Interface Science Co., Ltd. The surface tension was measured after adding a prescribed amount of blood modifying agent to sheep defibrinated blood, and thoroughly shaking. The measurement was accomplished automatically with a device, and the surface tension γ was determined by the following formula (see FIG. 10). γ=g×ρ×(de)^2×1/H The density ρ was measured at the temperatures listed in Table 7, according to JIS K 2249-1995, “Density test methods and density/mass/volume conversion tables”, “5. Vibrating density test method”. The measurement was accomplished using a DA-505 by Kyoto Electronics Co., Ltd.

The text on series [4]:
The term “solubility” used herein in regard to water solubility includes cases where the sample completely dissolves in deionized water to form a homogeneous mixture, and cases where the sample is completely emulsified. Here, “completely” means that no mass of the sample remains in the deionized water.

A short description of series [5]: Absorbent body migration rate after second dropping of blood. The conditions noted are these: time after second dropping of horse EDTA blood; agent about 5 g/m^2. The procedure: as §1, §2
In addition to the rewetting rate evaluation, the “absorbent body migration rate” was also measured as the time until migration of blood from the top sheet to the absorbent body after the second dropping of blood. The absorbent body migration rate is the time from introducing the blood onto the top sheet, until the redness of the blood […] on the surface and in the interior of the top sheet.

With `CCCCCCCCCCCCOC(=O)CCCCCCCCCCC` [ELECTOL WE20, Ester of dodecanoic acid (C12) and dodecyl alcohol (C12)], the Rewetting rate in series [1] is on record as 1.8%. Besides, in series [2], the Top sheet whiteness entry was “VG”. Moreover, in series [3], the Surface tension was 58.8 mN/m.

For the compound `CCCCOC(=O)CC(CC(=O)OCCCC)(OC(C)=O)C(=O)OCCCC` [Tributyl O-acetylcitrate], the Water solubility in series [4] is <0.05 g. In series [1], this compound registered a Rewetting rate of 6.2%. Also, the “Absorbent body migration rate” value in series [5] worked out at 8 s. In addition, in series [2], the Top sheet whiteness entry was “VG”.

In series [1], `CCCCCCCCCCCC(=O)OCC(O)CO` (centres unmarked) [90-L2 Lauric acid monoglyceride, lauric acid monoglyceride] registered a Rewetting rate of 6.2%. The Top sheet whiteness entry in series [2] was “P”.

In series [1], Isopropyl citrate had a Rewetting rate of 12.2%. Moreover, the “Absorbent body migration rate” value in series [5] came out at 5 s. The Top sheet whiteness result in series [2] is “G”.

In series [1], “Caprylic acid diglyceride [Caprylic diglyceride]” returned a Rewetting rate of 4.2%. For the same compound, the “Absorbent body migration rate” value in series [5] amounted to 9 s. For the same compound, the Top sheet whiteness entry in series [2] was “G”.

For the compound `CCCCC(CC)C(=O)OCC(COC(=O)C(CC)CCCC)OC(=O)C(CC)CCCC` (centres unmarked) [PANACET 800B], in series [4], the Water solubility was <0.05 g. The compound also displayed a Rewetting rate in series [1] of 2.0%. Further, in series [5], the “Absorbent body migration rate” value amounted to 3 s. The Top sheet whiteness entry in series [2] is given as “VG”.

For the compound `CC(C)CCCCCCCCCCCCCCCOC(=O)CC(O)C(=O)OCCCCCCCCCCCCCCCC(C)C` (centres unmarked) [Diisostearyl malate], in series [4], the Water solubility was 20< g. Besides, the Rewetting rate in series [1] is 5.5%. For the same compound, the “Absorbent body migration rate” value in series [5] amounted to 8 s. Moreover, the Top sheet whiteness result in series [2] is on record as “F”.

In the case of `CCCCC(CC)C(=O)OCC(C)(C)COC(=O)C(CC)CCCC` (centres unmarked) [H-208BRS, Neopentyl glycol di(2-ethylhexanoate)], the Water solubility in series [4] is <0.05 g. The Rewetting rate in series [1] was 2.0%. In series [5], the “Absorbent body migration rate” value was 5 s. For the same compound, the Top sheet whiteness result in series [2] is “VG”.

As for `CCCCCCCCCCCCCC(=O)OCCCCCCCCCCCC` [ELECTOL WE40, Ester of tetradecanoic acid (C14) and dodecyl alcohol (C12)], in series [1], the Rewetting rate was 1.8%. For the same compound, the “Absorbent body migration rate” value in series [5] turned out to be 4 s. The Top sheet whiteness entry in series [2] is reported as “VG”.

For `CCCCC(CC)C(=O)OCC(COC(=O)C(CC)CCCC)(COC(=O)C(CC)CCCC)COC(=O)C(CC)CCCC` (centres unmarked) [H-408BRS, Pentaerythritol tetra(2-ethylhexanoate)], in series [2], the Top sheet whiteness result is recorded as “VG”.

`CCCCCCCC(=O)OCC(COC(=O)CCCCCCC)OC(=O)CCCCCCC` [PANACET 800]: the Water solubility in series [4] is given as <0.05 g. Also, the Rewetting rate in series [1] was found to be 0.3%. Moreover, the “Absorbent body migration rate” value in series [5] came out at 3 s. The Top sheet whiteness result in series [2] was “VG”.

For the compound `CCCCCCCCOC(=O)CCCCC(=O)OCCCCCCCC` [Dioctyl adipate], in series [1], the Rewetting rate is reported as 1.7%. For the same compound, in series [5], the “Absorbent body migration rate” value is 6 s. For the same compound, the Top sheet whiteness entry in series [2] is “VG”.
